Data as given in patent US6403627B1, “Spin trapping pharmaceutical compositions and methods for use thereof” (Oklahoma Medical Research Foundation, priority 1991, dated 2002).

Legend:
Toxicity tests (LD50) = assay type: in vivo
Protocol: Exemplary dosages of the parent phenyl t-butyl nitrone administered intravenously range from 0.1 to 10 mg/kg of body weight in animals. […] It is possible to extrapolate from comparative tests using other spin trapping compounds what the effective dosage for these compounds will be.

[1] = test system: free radicals produced by adriamycin in heart, brain and other organs; details: brain and other organs of research animals; cited from earlier work
[2] = test system: oxidation of low density lipoprotein in plasma; assay: Oxidation of lipid in plasma/LDL samples measured as thiobarbituric acid reactive substance (TBAR); assay type: biochemical; details: for % inhibition / Test (TBAR): 0.1 mM PBN, 4° C. for seven weeks; for % inhibition: actual inhibition greater than measured (assay interference by PBN)
Protocol: Diabetic atherosclerosis involves the abnormal and excessive glycation of protein in the vascular wall. As discussed above for diabetic neuropathy, this involves oxygen radical production and consequent further damage to cytosolic proteins. Spin-trapping compounds will prevent this abnormal processing of cellular protein and other cellular constituents. […] Plasma samples were tested for oxidation of lipid measured using thiobarbioturic acid reactive substance (TBAR, nM) and % inhibition of oxidation calculated.

[3] = test system: protein oxidation and enzyme activity in aged cells/brain; details: as early as seven days following initiation of daily treatment; cited from earlier work
[4] = test system: protein oxidation and enzyme activity in aged cells/brain; assay: Age-related protein oxidation and enzyme activity after daily administration; assay type: in vivo; details: aging; daily administration for fourteen days
Source text: The consequence of this increased level of protein oxidation is an abnormally low level of critical enzymes in the affected cells. While not all cells have been evaluated, it appears from the in vivo data presented in U.S. Ser. No. 07/589,177abandoned on Mar. 5, 1993, and U.S. Ser. No. 07/422,651, now U.S. Pat. No. 5,025,032, and reports of in vitro studies, that most, if not all, cells in the body will undergo abnormally high levels of protein oxidation. Decreases in antioxidant systems and abnormally low levels of mitochondrial function have been described. The protein oxidation is thought to arise from oxygen free radicals, largely generated via a metal catalyzed reaction within the cell. […] Organs for transplantation are obtained from donors. The success of the procedure is determined in part by the age (oxidation) related reduction in organ viability, the amount of time the organ is in preservation solution, and the status of the recipient.

## CC(C)(C)[N+]([O-])=Cc1ccccc1 [PBN, phenyl N-tert-butylnitrone]
Toxicity tests (LD50)
  LD50: not possible to determine an LD50
  toxicity: completely innocuous
[1]
  trapping of free radicals produced by adriamycin: trap the free radicals produced by adriamycin
[2]; NP132 plasma
  % inhibition: 18.2%
[2]; NP132 plasma, control + PBS 0.55
  Test (TBAR): 0.45 nM/ml
[2]; NP133 LDL
  % inhibition: 48.1%
[2]; NP133 LDL, control + PBS 0.54
  Test (TBAR): 0.28 nM/ml
[2]; NP134 plasma
  % inhibition: 22.2%
[2]; NP134 plasma, control + PBS 0.18
  Test (TBAR): 0.14 nM/ml
[2]; NP135 LDL
  % inhibition: 66.7%
[2]; NP135 LDL, control + PBS 0.33
  Test (TBAR): 0.11 nM/ml
[2]; NP135 plasma
  % inhibition: 21.9%
[2]; NP135 plasma, control + PBS 0.32
  Test (TBAR): 0.25 nM/ml
[2]; in vitro studies
  oxidation of low density lipoprotein in plasma: inhibits or reduces oxidation of low density lipoprotein in plasma
[3]
  enzymatic status of the aged brain: restoring enzymatic levels to near those of the young adult
[4]
  abnormally low level of enzyme activity: restored to normal
  level of protein oxidation: decreased
